In patent publication US9187471B2, “Pyrido [4,3-b] indole and pyrido [3,4-b] indole derivatives and methods of use” (Medivation Technologies, Inc., priority 2010, dated 2015):

Assays:
[1] = molecular target: T1, human recombinant serotonin (5-Hydroxytryptamine) 5-HT2C receptor (Homo sapiens, UniProt P28335); experiment: Serotonin 5-HT2C radioligand binding ([3H]Mesulergine); settings: compound at 0.1 μM; read-out: Inhibition of ligand binding, Serotonin 5-HT2C (percent inhibition of specific binding)
T1 construct: expressed in transfected cells; host or cells: CHO-K1
T1 sequence (P28335 33-458): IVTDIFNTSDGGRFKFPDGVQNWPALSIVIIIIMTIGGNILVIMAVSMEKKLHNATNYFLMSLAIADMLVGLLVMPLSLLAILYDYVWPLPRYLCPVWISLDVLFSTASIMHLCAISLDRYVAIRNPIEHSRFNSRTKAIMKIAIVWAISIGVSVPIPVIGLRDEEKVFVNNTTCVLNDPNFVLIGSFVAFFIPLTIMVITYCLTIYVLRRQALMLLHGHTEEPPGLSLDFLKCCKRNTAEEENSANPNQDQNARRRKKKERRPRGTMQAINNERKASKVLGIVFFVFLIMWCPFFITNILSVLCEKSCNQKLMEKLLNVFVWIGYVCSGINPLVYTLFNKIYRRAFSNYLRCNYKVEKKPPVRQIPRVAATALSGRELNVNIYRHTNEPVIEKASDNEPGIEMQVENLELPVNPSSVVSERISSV
Description: Compounds of the invention were incubated with 1 nM [^3H]Mesulergine for 60 min at 25° C. Non-specific binding was estimated in the presence of 1 μM Mianserin. Receptor proteins were filtered and washed, the filters were then counted to determine [^3H]Mesulergine specifically bound.

[2] = molecular target: T2, human recombinant serotonin (5-Hydroxytryptamine) 5-HT5A receptor (Homo sapiens, UniProt P47898); experiment: Serotonin 5-HT5A radioligand binding ([3H]LSD); settings: compound at 0.1 μM; read-out: Inhibition of ligand binding, Serotonin 5-HT5A (percent inhibition of specific binding)
T2 construct: expressed in transfected cells; host or cells: CHO-K1
T2 sequence (P47898 whole entry): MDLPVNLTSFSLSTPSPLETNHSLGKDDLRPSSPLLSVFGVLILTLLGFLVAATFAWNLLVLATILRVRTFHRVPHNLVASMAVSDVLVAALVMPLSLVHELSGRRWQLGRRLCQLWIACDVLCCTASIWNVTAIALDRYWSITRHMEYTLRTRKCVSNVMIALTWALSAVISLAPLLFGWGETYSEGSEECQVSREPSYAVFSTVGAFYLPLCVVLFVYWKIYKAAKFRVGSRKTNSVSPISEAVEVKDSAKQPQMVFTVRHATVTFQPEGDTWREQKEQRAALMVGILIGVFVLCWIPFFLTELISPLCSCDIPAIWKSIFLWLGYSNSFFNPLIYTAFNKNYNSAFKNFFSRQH
Description: Compounds of the invention were incubated with 1.7 nM [^3H]Lysergic acid diethylamide (LSD) for 60 min at 37° C. […] Receptor proteins were filtered and washed, the filters were counted to determine [^3H]LSD specifically bound.

[3] = molecular target: T3, human recombinant adrenergic α2C receptor (Homo sapiens, UniProt P18825); experiment: Adrenergic α2C radioligand binding ([3H]MK-912); settings: read-out: Adrenergic (0.1 μM) a2C, percent inhibition of specific binding; compound at 0.1 μM; 1 nM [3H]MK-912
T3 construct: expressed in transfected cells; host or cells: insect Sf9 cells
T3 sequence (P18825 1-462): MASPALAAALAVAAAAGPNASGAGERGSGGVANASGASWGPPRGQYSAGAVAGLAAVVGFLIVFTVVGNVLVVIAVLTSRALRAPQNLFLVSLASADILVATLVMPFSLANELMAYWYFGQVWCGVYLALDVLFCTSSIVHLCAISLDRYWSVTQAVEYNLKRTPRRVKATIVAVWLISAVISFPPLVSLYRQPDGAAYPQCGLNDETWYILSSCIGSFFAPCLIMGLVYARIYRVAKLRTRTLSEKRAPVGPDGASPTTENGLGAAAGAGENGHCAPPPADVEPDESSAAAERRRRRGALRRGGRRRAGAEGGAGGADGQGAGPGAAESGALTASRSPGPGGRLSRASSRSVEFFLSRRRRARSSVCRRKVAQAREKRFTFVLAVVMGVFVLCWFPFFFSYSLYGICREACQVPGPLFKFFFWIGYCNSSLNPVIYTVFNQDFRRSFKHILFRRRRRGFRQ
Procedure, shortened: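 Membranes from Sf9 cells expressing the human receptor, in 50 mM Tris-HCl pH 7.4 with 12.5 mM MgCl2 and 2 mM EDTA, incubated with compound and 1 nM [3H]MK-912 for 60 min at 25 °C. Non-specific binding defined with 10 μM WB-4101. Filter-bound radioactivity counted; percent inhibition of specific binding reported.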

[4] = molecular target: T4, human recombinant serotonin (5-Hydroxytryptamine) 5-HT2A receptor (Homo sapiens, UniProt P28223); experiment: Serotonin 5-HT2A radioligand binding ([3H]Ketanserin); settings: compound at 0.1 μM; read-out: Inhibition of ligand binding, Serotonin 5-HT2A (percent inhibition of specific binding)
T4 construct: expressed in transfected cells; host or cells: CHO-K1
T4 sequence (P28223 whole entry): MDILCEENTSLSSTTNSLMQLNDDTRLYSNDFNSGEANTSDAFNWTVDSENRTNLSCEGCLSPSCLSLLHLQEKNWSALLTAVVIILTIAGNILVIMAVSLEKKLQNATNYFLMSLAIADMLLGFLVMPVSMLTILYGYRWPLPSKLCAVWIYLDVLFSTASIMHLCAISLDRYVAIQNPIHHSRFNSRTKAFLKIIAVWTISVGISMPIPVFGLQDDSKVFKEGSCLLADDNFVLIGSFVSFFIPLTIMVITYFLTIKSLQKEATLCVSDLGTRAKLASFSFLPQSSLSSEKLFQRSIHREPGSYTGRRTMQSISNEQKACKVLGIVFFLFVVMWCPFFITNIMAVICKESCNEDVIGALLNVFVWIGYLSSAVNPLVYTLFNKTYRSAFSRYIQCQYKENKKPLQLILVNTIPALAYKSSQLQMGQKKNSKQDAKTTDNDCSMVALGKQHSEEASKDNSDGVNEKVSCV
Description: Compounds of the invention were incubated with 0.5 nM [^3H]Ketanserin for 60 min at 25° C. Non-specific binding was estimated in the presence of 1 μM Mianserin. Receptor proteins were filtered and washed, the filters were then counted to determine [^3H]Ketanserin specifically bound.

[5] = molecular target: T5, rat adrenergic α1A receptor (Rattus norvegicus, UniProt P43140); experiment: Adrenergic α1A radioligand binding ([3H]Prazosin); settings: read-out: Adrenergic (0.1 μM) a1A, percent inhibition of specific binding; compound at 0.1 μM; 0.25 nM [3H]Prazosin
T5 construct: rat adrenergic α1A receptor obtained from Wistar Rat submaxillary glands; from tissue; host or cells: Wistar rat submaxillary glands
T5 sequence (P43140 1-466): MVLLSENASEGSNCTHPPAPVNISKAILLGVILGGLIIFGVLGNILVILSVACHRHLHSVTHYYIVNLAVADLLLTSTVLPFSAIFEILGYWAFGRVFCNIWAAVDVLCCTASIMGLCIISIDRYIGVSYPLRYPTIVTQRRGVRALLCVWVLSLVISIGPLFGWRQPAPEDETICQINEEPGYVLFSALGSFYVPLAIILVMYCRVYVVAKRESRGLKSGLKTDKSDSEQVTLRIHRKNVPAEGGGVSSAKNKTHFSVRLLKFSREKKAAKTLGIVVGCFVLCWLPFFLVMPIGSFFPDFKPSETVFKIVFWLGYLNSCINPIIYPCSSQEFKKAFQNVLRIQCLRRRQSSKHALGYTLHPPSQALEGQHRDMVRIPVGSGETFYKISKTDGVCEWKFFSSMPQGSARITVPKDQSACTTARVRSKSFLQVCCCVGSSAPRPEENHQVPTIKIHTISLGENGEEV
Procedure, shortened: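 Wistar rat submaxillary gland receptor in 50 mM Tris-HCl pH 7.4 with 0.5 mM EDTA, incubated with compound and 0.25 nM [3H]Prazosin for 60 min at 25 °C.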

SMILES | inhibition at 0.1 µM [1] | inhibition at 0.1 µM [2] | inhibition at 0.1 µM [3] | inhibition at 0.1 µM [4] | inhibition at 0.1 µM [5]
CNC(=O)c1cccc(-c2ccc(-n3c4c(c5cc(C)ccc53)CN(C)CC4)nc2)c1 [Compound No. 143, 3-(6-(2,8-dimethyl-3,4-dihydro-1H-pyrido[4,3-b]indol-5(2H)-yl)pyridin-3-yl)-N-methylbenzamide] | 44% | 17% | 8% | 55% | 32%
Cc1ccc2c(c1)c1c(n2-c2cscc2-c2cccc3[nH]ncc23)CCN(C)C1 [Compound 41] | 91% | 94% | 55% | 84% | 59%
Cc1ccc2c(c1)c1c(n2-c2ccc(-c3ccncc3)cn2)CCN(C)C1 [Compound No. 132, 5-(3,4′-bipyridin-6-yl)-2,8-dimethyl-2,3,4,5-tetrahydro-1H-pyrido[4,3-b]indole] | 77% | 2% | -2% | 83% | 11%
Cc1ccc2c(c1)c1c(n2-c2ccccc2-c2cnc(N(C)C)nc2)CCN(C)C1 [Compound 31] | 15% | 8% | 12% | 27% | 51%
Cc1ccc2c(c1)c1c(n2-c2cccc(-c3cccn3C)c2)CCN(C)C1 [Compound No. 69, 2,8-dimethyl-5-(3-(1-methyl-1H-pyrrol-2-yl)phenyl)-2,3,4,5-tetrahydro-1H-pyrido[4,3-b]indole] | 79% | 36% | -4% | 99% | 8%
Cc1ccc2c(c1)c1c(n2-c2cccc(-c3ccc(S(C)(=O)=O)cc3)c2)CCN(C)C1 [Compound No. 131, 2,8-dimethyl-5-(4′-(methylsulfonyl)biphenyl-3-yl)-2,3,4,5-tetrahydro-1H-pyrido[4,3-b]indole] | -6% | 19% | 13% | 74% | 0%
Cc1ccc2c(c1)c1c(n2-c2cccc3ccncc23)CCN(C)C1 [Compound 58, 5-(isoquinolin-8-yl)-2,8-dimethyl-2,3,4,5-tetrahydro-1H-pyrido[4,3-b]indole] | 81% | 33% | -1% | 70% | 3%
Cc1ccc2c(c1)c1c(n2-c2ccc(-c3ccc(S(N)(=O)=O)cc3)cn2)CCN(C)C1 [Compound No. 145, 4-(6-(2,8-dimethyl-3,4-dihydro-1H-pyrido[4,3-b]indol-5(2H)-yl)pyridin-3-yl)benzenesulfonamide] | 66% | 15% | 6% | 82% | 44%
Cc1cc(C)c2c(c1)c1c(n2-c2ccc3ncccc3c2)CCN(C)C1 [Compound 48] | 47% | 10% | -7% | 13% | -6%
Cc1ccc2c(c1)c1c(n2-c2ccc3cnccc3c2)CCN(C)C1 [Compound 38] | 88% | 29% | 11% | 84% | 36%
Cc1ccc2c(c1)c1c(n2-c2cccc(-c3ccc(C)s3)c2)CCN(C)C1 [Compound No. 64, 2,8-dimethyl-5-(3-(5-methylthiophen-2-yl)phenyl)-2,3,4,5-tetrahydro-1H-pyrido[4,3-b]indole] | 83% | 30% | 12% | 102% | -8%
CNC(=O)c1ccc(-c2cscc2-n2c3c(c4cc(C)ccc42)CN(C)CC3)cc1 [Compound No. 155] | 31% | 69% | 0% | 27% | 80%
Cc1ccc2c(c1)c1c(n2-c2ccc(-c3ccc(F)nc3)cn2)CCN(C)C1 [Compound No. 142, 5-(6′-fluoro-3,3′-bipyridin-6-yl)-2,8-dimethyl-2,3,4,5-tetrahydro-1H-pyrido[4,3-b]indole] | 98% | 23% | 5% | 103% | 46%
Cc1ccc2c(c1)c1c(n2-c2ccccc2-c2ccc(C)nc2)CCN(C)C1 [Compound 59, 2,8-dimethyl-5-(2-(6-methylpyridin-3-yl)phenyl)-2,3,4,5-tetrahydro-1H-pyrido[4,3-b]indole] | 46% | 31% | 25% | 47% | 42%
Cc1ccc2c(c1)c1c(n2-c2cscc2-c2sccc2C)CCN(C)C1 [Compound 39] | 93% | 83% | 50% | 84% | 31%
Cc1cc(C)c2c(c1)c1c(n2-c2cccc3ncccc23)CCN(C)C1 [Compound 47] | 32% | 29% | 11% | 1% | -1%
Cc1ccc2c(c1)c1c(n2-c2cscc2-c2ccc(S(C)(=O)=O)cc2)CCN(C)C1 [Compound No. 76] | 24% | 90% | 79% | 30% | 82%
Cc1ccc2c(c1)c1c(n2-c2ccc(-c3sccc3C)cn2)CCN(C)C1 [Compound No. 148, 2,8-dimethyl-5-(5-(3-methylthiophen-2-yl)pyridin-2-yl)-2,3,4,5-tetrahydro-1H-pyrido[4,3-b]indole] | 88% | 50% | 4% | 95% | 20%
CNC(=O)c1ccc(-c2cccc(-n3c4c(c5cc(C)ccc53)CN(C)CC4)c2)cn1 [Compound No. 75, 5-(3-(2,8-dimethyl-3,4-dihydro-1H-pyrido[4,3-b]indol-5(2H)-yl)phenyl)-N-methylpicolinamide] | 25% | 29% | -3% | 55% | 21%
